From PMC8253220, “Molecular design, synthesis and in vitro biological evaluation of thienopyrimidine–hydroxamic acids as chimeric kinase HDAC inhibitors: a challenging approach to combat cancer” (Journal of Enzyme Inhibition and Medicinal Chemistry, 2021)
Several values for one entry are separate records, joined by “and”; a condition that tells them apart may be missing. Equal values may be shown once.

What was measured:
EGFR = EGFR (Homo sapiens, UniProt P00533); test: In vitro EGFR tyrosine kinase inhibitory assay (Z'-LYTE, SelectScreen); format: biochemical; conditions: 10 µM single dose
EGFR, sequence (P00533 25-1210): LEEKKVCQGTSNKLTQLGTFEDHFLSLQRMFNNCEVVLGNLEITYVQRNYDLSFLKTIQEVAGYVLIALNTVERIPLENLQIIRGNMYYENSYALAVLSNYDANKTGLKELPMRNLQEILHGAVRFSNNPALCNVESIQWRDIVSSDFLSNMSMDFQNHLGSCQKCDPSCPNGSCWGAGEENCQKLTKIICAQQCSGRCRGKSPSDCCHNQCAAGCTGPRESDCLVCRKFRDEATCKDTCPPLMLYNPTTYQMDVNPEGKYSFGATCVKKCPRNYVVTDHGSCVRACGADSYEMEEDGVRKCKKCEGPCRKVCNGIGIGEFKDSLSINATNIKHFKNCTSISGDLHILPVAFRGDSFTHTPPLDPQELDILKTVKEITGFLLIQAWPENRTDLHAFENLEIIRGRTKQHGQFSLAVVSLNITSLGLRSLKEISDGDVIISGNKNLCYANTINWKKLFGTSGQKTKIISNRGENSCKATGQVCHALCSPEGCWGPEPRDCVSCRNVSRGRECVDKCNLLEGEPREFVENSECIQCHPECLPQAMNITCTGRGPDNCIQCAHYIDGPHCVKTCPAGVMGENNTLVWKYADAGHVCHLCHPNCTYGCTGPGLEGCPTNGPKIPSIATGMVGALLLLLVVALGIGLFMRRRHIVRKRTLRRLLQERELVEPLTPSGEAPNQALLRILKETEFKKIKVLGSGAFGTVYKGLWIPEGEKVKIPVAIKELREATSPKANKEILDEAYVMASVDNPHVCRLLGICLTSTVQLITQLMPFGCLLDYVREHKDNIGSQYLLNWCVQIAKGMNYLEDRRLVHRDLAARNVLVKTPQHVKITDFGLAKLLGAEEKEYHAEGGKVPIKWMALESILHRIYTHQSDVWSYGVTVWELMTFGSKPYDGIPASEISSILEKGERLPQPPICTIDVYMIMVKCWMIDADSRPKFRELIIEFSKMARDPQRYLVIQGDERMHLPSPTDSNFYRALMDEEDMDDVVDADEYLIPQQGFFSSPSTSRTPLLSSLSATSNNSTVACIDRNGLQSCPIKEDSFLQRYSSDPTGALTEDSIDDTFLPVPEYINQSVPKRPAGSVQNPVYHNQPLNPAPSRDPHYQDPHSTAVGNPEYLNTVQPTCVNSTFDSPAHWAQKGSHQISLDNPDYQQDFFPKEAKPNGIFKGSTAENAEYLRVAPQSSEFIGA
Experimental: The target compounds were evaluated for their in vitro inhibitory activities against EGFR, VEGFR-2, and HDAC6. The EGFR and VEGFR-2 inhibitory assays were performed at Thermo Fischer Scientific, Madison, WI, USA (SelectScreenServices@thermofisher.com). The HDAC inhibitory assays were performed at BPS Bioscience, San Diego, CA, USA (www.bpsbioscience.com). Initially, all of the synthesised target compounds were evaluated for their percent inhibitory activity against EGFR, VEGFR-2, and HDACs at 10 µM single dose concentration, in which their mean percent inhibition is summarised in (Figure 5, Tables 1 and [2]). Representative compounds were evaluated for their percent inhibitory activity against EGFR and VEGFR-2 at 6 different concentrations (0.1 nM, 1 nM, 10 nM, 100 nM, 1 µM, 10 µM) to subsequently calculate their IC50 values (Table 3). Additionally, all of the synthesised target compounds were submitted to the National Cancer Institute “NCI” Bethesda, Maryland, USA (www.dtp.nci.nih.gov), to evaluate theirs in vitro antiproliferative activities against NCI 60- cancer cell line panel.
In vitro enzyme inhibition determination for the synthesised compounds was carried out in Thermo Fischer Scientific, Madison, WI, USA (SelectScreenServices@thermofisher.com). The EGFR and VEGFR-2 tyrosine kinase % inhibitory activity at a single-dose concentration of 10 µM was performed initially then representative compounds were evaluated at single-dose concentrations of (0.1 nM, 1 nM, 10 nM, 100 nM, 1 µM) using ZYLTE technology. A fluorescence-based, coupled-enzyme format is employed in the biochemical assay and depends on the sensitivity of proteolytic cleavage to non-phosphorylated and phosphorylated peptides. Then IC50 values for selected compounds were determined by GraphPad Prism at Misr international university.

BT-549 = test: NCI one-dose screen; format: cell-based, human; conditions: Breast BT-549, 10 µM single dose
Method in brief: (§1)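 One concentration (10 μM) applied to each line of the full NCI-60 panel; percent growth compared against untreated cells.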

CCRF-CEM = test: NCI one-dose screen; format: cell-based, human; conditions: Leukemia CCRF-CEM, 10 µM single dose
Method in brief: as §1

HCT-15 = test: NCI one-dose screen; format: cell-based, human; conditions: Colon HCT-15, 10 µM single dose
Method in brief: as §1

HL-60(TB) = test: NCI one-dose screen; format: cell-based, human; conditions: Leukemia HL-60(TB), 10 µM single dose
Method in brief: (§2)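 At 10 μM, a single concentration, compounds were evaluated for antiproliferative effect in the NCI 60-line screen, with growth expressed relative to untreated control cells.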

HT29 = test: NCI one-dose screen; format: cell-based, human; conditions: Colon HT29, 10 µM single dose
Method in brief: as §1

K-562 = test: NCI one-dose screen; format: cell-based, human; conditions: Leukemia K-562, 10 µM single dose
Method in brief: as §1

MDA-MB-435 = test: NCI one-dose screen; format: cell-based, human; conditions: Melanoma MDA-MB-435, 10 µM single dose
Method in brief: as §1

MDA-MB-468 = test: NCI one-dose screen; format: cell-based, human; conditions: Breast MDA-MB-468, 10 µM single dose
Method in brief: (§3)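 Compounds were tested at a single dose of 10 μM across the full NCI-60 cell line panel. Growth was expressed as percent growth relative to untreated control cells, reported as percent inhibition.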

NCI-H23 = test: NCI one-dose screen; format: cell-based, human; conditions: NSCLC NCI-H23, 10 µM single dose
Method in brief: as §3

NCI-H322M = test: NCI one-dose screen; format: cell-based, human; conditions: NSCLC NCI-H322M, 10 µM single dose
Method in brief: as §1

NCI-H460 = test: NCI one-dose screen; format: cell-based, human; conditions: NSCLC NCI-H460, 10 µM single dose
Method in brief: as §1

NCI/ADR-RES = test: NCI one-dose screen; format: cell-based, human; conditions: Ovarian NCI/ADR-RES, 10 µM single dose
Method in brief: as §1

OVCAR-4 = test: NCI one-dose screen; format: cell-based, human; conditions: Ovarian OVCAR-4, 10 µM single dose
Method in brief: as §1

OVCAR-5 = test: NCI one-dose screen; format: cell-based, human; conditions: Ovarian OVCAR-5, 10 µM single dose
Method in brief: as §1

OVCAR-8 = test: NCI one-dose screen; format: cell-based, human; conditions: Ovarian OVCAR-8, 10 µM single dose
Method in brief: as §1

PC-3 = test: NCI one-dose screen; format: cell-based, human; conditions: Prostate PC-3, 10 µM single dose
Method in brief: as §2

SK-MEL-28 = test: NCI one-dose screen; format: cell-based, human; conditions: Melanoma SK-MEL-28, 10 µM single dose
Method in brief: as §2

SK-MEL-5 = test: NCI one-dose screen; format: cell-based, human; conditions: Melanoma SK-MEL-5, 10 µM single dose
Method in brief: as §1

SN12C = test: NCI one-dose screen; format: cell-based, human; conditions: Renal SN12C, 10 µM single dose
Method in brief: as §1

SNB-75 = test: NCI one-dose screen; format: cell-based, human; conditions: CNS SNB-75, 10 µM single dose
Method in brief: (§4)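 Following the standard NCI-60 protocol, compounds were applied once at 10 μM to all 60 cancer lines. Read-out is percent growth versus untreated controls, expressed as inhibition %.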

U251 = test: NCI one-dose screen; format: cell-based, human; conditions: CNS U251, 10 µM single dose
Method in brief: as §4

UO-31 = test: NCI one-dose screen; format: cell-based, human; conditions: Renal UO-31, 10 µM single dose
Method in brief: as §4

full NCI 60 cell panel = test: NCI one-dose screen, whole panel statistics; format: cell-based, human; conditions: 1.00E-5 Molar; for Mean Growth Percent: mean over panel
Experimental: All of the synthesised structures were selected and submitted to NCI based on computer modelling techniques and the degree of diversity of structures for the evaluation of their antiproliferative activity. The 20 synthesised compounds were selected with their respective NCI codes [NCS D-820157- NCS D-820176] for the inhibition percent assay at an initial single dose of 10 μM on the full NCI 60 cell panel, where the mean graph of the percent growth for all compounds on the full NCI cell panel is evaluated, compared to the untreated control cells (Supplementary Material). In vitro cell line inhibition % of all synthesised compounds is represented in (Table 1 of Supplementary Material).
All of the synthesised compounds (20) were submitted to NCI and selected for in vitro anticancer assay against a panel of 60 cancer cell lines. The methodology of assay and calculations is as reported.

Structure (SMILES) | inhibition at 10 µM (EGFR) | Growth Percent (BT-549) | Growth Percent (CCRF-CEM) | Growth Percent (HCT-15) | Growth Percent (HL-60(TB)) | Growth Percent (HT29) | Growth Percent (K-562) | Growth Percent (MDA-MB-435) | Growth Percent (MDA-MB-468) | Growth Percent (NCI-H23) | Growth Percent (NCI-H322M) | Growth Percent (NCI-H460) | Growth Percent (NCI/ADR-RES) | Growth Percent (OVCAR-4) | Growth Percent (OVCAR-5) | Growth Percent (OVCAR-8) | Growth Percent (PC-3) | Growth Percent (SK-MEL-28) | Growth Percent (SK-MEL-5) | Growth Percent (SN12C) | other results
Cc1c(C(=O)NCCC(=O)NO)sc2ncnc(Nc3ccccc3)c12 [Compound 19b, N-(3-(hydroxyamino)-3-oxopropyl)-5-methyl-4-(phenylamino)thieno[2,3-d]pyrimidine-6-carboxamide] | 76% | 109.1% and 109.16% | 101.13% | 95.0% and 95.07% | 103.7% | 104.9% and 104.96% | 101.9% and 101.92% | 102.9% and 102.98% | 92.2% and 92.23% | 95.7% and 95.71% | 99.0% and 99.06% | 100.8% and 100.82% | 97.2% and 97.26% | 104.9% and 104.94% | 102.0% and 102.09% | 99.4% and 99.45% | 105.1% and 105.18% | 107.9% and 107.91% | 94.4% and 94.42% | 98.5% and 98.51% | Growth Percent (SNB-75): 81.4% and 81.46%; Growth Percent (U251): 101.5% and 101.54%; Growth Percent (UO-31): 86.4% and 86.41%; Delta (one dose mean graph) (full NCI 60 cell panel): 19.11%; Range (one dose mean graph) (full NCI 60 cell panel): 40.57%; Mean Growth Percent (full NCI 60 cell panel): 100.57%; melting point: 267 to 270 °C
COc1cccc(NC(=O)Nc2ccc(Nc3ncnc4sc(C(=O)NCCC(=O)NO)c(C)c34)cc2)c1 [Compound 11b, 1–(4-(6-((3-(hydroxyamino)-3-oxopropyl)carbamoyl)-5-methylthieno[2,3-d]pyrimidin-4-ylamino)phenyl)-3–(3-methoxyphenyl)urea] | 5% | 96.1% and 96.14% | 105.0% and 105.08% | 99.0% and 99.06% | 103.9% and 103.99% | 104.4% and 104.43% | 115.1% and 115.17% | 100.8% and 100.85% | 83.0% and 83.04% | 96.6% and 96.67% | 100.7% and 100.74% | 101.9% and 101.91% | 102.4% and 102.42% | 91.0% and 91.01% | 101.9% and 101.91% | 99.2% and 99.26% | 102.0% and 102.03% | 105.3% | 95.8% and 95.84% | 105.1% and 105.11% | Growth Percent (SNB-75): 83.7% and 83.79%; Growth Percent (U251): 97.1% and 97.12%; Growth Percent (UO-31): 83.4% and 83.44%; Delta (one dose mean graph) (full NCI 60 cell panel): 17.95%; Range (one dose mean graph) (full NCI 60 cell panel): 40.74%; Mean Growth Percent (full NCI 60 cell panel): 100.99%; melting point: 257 to 260 °C
COc1cccc(NC(=O)Nc2ccc(Nc3ncnc4sc(C(=O)NCCCC(=O)NO)c(C)c34)cc2)c1 [Compound 12b, 1–(4-(6-((4-(hydroxyamino)-4-oxobutyl)carbamoyl)-5-methylthieno[2,3-d]pyrimidin-4-ylamino)phenyl)-3–(3-methoxyphenyl)urea] | 5% | 105.5% and 105.57% | 103.5% and 103.52% | 99.6% and 99.68% | 102.4% | 95.3% | 101.6% and 101.69% | 100.9% | 97.0% and 97.02% | 97.5% and 97.53% | 95.9% and 95.94% | 99.1% | 101.6% and 101.63% | 99.9% and 99.93% | 107.5% and 107.59% | 103.6% and 103.67% | 98.6% and 98.65% | 104.0% and 104.05% | 97.3% and 97.37% | 104.5% and 104.52% | Growth Percent (SNB-75): 90.6% and 90.62%; Growth Percent (U251): 92.8% and 92.88%; Growth Percent (UO-31): 82.0% and 82.06%; Delta (one dose mean graph) (full NCI 60 cell panel): 18.34%; Range (one dose mean graph) (full NCI 60 cell panel): 33.01%; Mean Growth Percent (full NCI 60 cell panel): 100.10%; melting point: 231 to 233 °C
